According to US11234941B2, “Oil-free carotenoid composition” (GAT Therapeutics S.L., priority 2017, dated 2022):

What was measured:
[1] = target: T1, glucocorticoid receptor (GR) (Homo sapiens, UniProt P04150); experiment: SelectScreen cell-based GR antagonist assay (UAS-bla HEK 293T, beta-lactamase reporter, dexamethasone as agonist)
T1 construct: the UAS-driven beta-lactamase is the reporter
T1 sequence (P04150 524-777 limits assumed): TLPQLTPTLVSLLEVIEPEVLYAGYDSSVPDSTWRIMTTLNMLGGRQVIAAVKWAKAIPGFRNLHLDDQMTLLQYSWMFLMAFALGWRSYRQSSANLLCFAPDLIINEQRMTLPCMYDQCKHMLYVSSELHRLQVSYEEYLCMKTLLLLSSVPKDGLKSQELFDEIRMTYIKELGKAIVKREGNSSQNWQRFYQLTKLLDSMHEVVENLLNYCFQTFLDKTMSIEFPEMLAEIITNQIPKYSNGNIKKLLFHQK
Description: An antagonist assay for GR was performed by SelectScreen® Cell-Based Nuclear Receptor Profiling Service of Life Technologies. […] Detection method is based on a beta-lactamase reporter gene (bla) combined with a FRET-enabled substrate. The data obtained in these assays was modelled to a sigmoidal dose response curve.

[2] = Observation of precipitation and aggregates during nanoparticle preparation; details: after addition of the xanthophyll to the albumin solution
Description: To prepare bovine serum albumin (BSA)—astaxanthin nanoparticles, albumin (20 mg, 5 mg or 1 mg depending on the protein:carotenoid ratio) was dissolved in 1 mL deionized water and 1 mg of astaxanthin was dissolved in 0.25 mL THF. The astaxanthin solution was slowly added to the BSA solution under stirring and nitrogen atmosphere. When the addition of carotene was completed the solution was stirred at room temperature for 10 additional minutes. The organic solvent (THF) in the mixed solution was slowly removed by speed vacuum at 25° C. Distillation was completed when the total solution volume was reduced by ⅔. Finally, the nanoparticle solutions were filtered through a 0.22 μm PES membrane filter and immediately stored in the dark at 4° C.

[3] = at 10 μM, against dexamethasone

Row | Compound | GR inhibition [1, 3] | antagonist effect on GR ([1]; against dexamethasone) | also measured
1 | CC1=C(/C=C/C(C)=C/C=C/C(C)=C/C=C/C=C(C)/C=C/C=C(C)/C=C/C2=C(C)C(=O)[C@@H](O)CC2(C)C)C(C)(C)C[C@H](O)C1=O [astaxanthin, reference compound] |  | neither compound exercised an antagonist effect on GR | 
2 | CC1=C(/C=C/C(C)=C/C=C/C(C)=C/C=C/C=C(C)/C=C/C=C(C)/C=C/C2=C(C)CCCC2(C)C)C(C)(C)CCC1 [beta-carotene, reference compound] |  | neither compound exercised an antagonist effect on GR | 
3 | CC1=C[C@H](O)CC(C)(C)[C@H]1/C=C/C(C)=C/C=C/C(C)=C/C=C/C=C(C)/C=C/C=C(C)/C=C/C1=C(C)C[C@@H](O)CC1(C)C [lutein] |  |  | inhibition at 10 µM ([1]; HEK-293T, at 10 μM, against dexamethasone): 80%
4 | fucoxanthin | 50% |  | concentration from which it acts as GR antagonist ([1]; against the agonist dexamethasone): 30 nM; formation of aggregates with poor solubility during nanoparticle preparation [2]: not observed

Second part, led by results:

Row | GR inhibition [1, 3] | Compound | antagonist effect on GR ([1]; against dexamethasone) | also measured
5 | above 85% | CC(=C/C=C/C(C)=C/C=C/C=C(C)/C=C/C=C(\C)C=C=C1C(C)(C)C[C@H](O)C[C@@]1(C)O)/C=C/[C@@]12O[C@]1(C)C[C@@H](O)CC2(C)C [Neoxanthin, neoxanthin] |  | 
6 | 80% | CC(=O)O[C@H]1CC(C)(C)C(=C=C/C(C)=C/C=C/C(C)=C/C=C/C=C(C)/C=C/C=C(\C)C(=O)/C=C2/C(C)(C)C[C@H](O)C[C@@]2(C)O)[C@](C)(O)C1 [isofucoxanthin] |  | 
